Laboratory results taken from patent EP4796530A1 (Biocells (Beijing) Biotech Co., Ltd., priority 2023, dated 2025).

What was measured:
[1] = Mouse pharmacokinetics after intravenous administration (plasma and brain, LC-MS); assay type: in vivo; conditions: C57 mice, intravenous 5 mg/kg; for concentration at 120 min: brain after cardiac perfusion, read-out: brain drug concentration at 120 min; for half-life / AUC: plasma; for AUC: read-out: area under the curve (AUC) from 1 to 120 min
Method: C57 mice were administered intravenously, at a dosage concentration of 5 mg/kg in each group. Retro-orbital blood collection was performed on the mice at 1 min, 30 min, 1 h, and 2 h post-dosing. The collected blood was centrifuged at 3000 rpm for 10 min at 4 °C to obtain plasma. Acetonitrile was added at a 1:3 volume ratio of plasma: acetonitrile to precipitate proteins. After centrifugation, the supernatant was collected and filtered. The concentration of the compound was detected using LC-MS (Agilent 1260-G6125, SIM mode). In addition, 2 h after drug injection, the mice were subjected to cardiac perfusion and then their brains were harvested. Following tissue homogenization and centrifugation, the supernatant was collected. Acetonitrile was added at a 1:3 volume ratio of supernatant: acetonitrile to precipitate proteins. After centrifugation, the supernatant was collected and filtered. The concentration of the compound was detected using LC-MS (Agilent 1260-G6125, SIM mode).
(§1) Experimental groups: a vehicle control group, and a dosing group.

[2] = Rat plasma pharmacokinetics after intravenous administration (LC-MS); assay type: in vivo; conditions: SD rats, intravenous 2.5 mg/kg
Method: SD rats were administered intravenously, at a dosage concentration of 2.5 mg/kg in each group. Blood was collected at the time points of 1 min, 30 min, 1 h, 2 h, 4 h, 6 h, and 24 h. The collected blood was centrifuged at 3000 rpm for 10 min at 4 °C to obtain plasma. Acetonitrile was added at a 1:3 volume ratio of plasma: acetonitrile to precipitate proteins. After centrifugation, the supernatant was collected and filtered. The concentration of the compound was detected using LC-MS (Agilent 1260-G6125, SIM mode).
as §1

NLRP3 [3] = target: T1, NLRP3 (Mus musculus, UniProt Q8R4B8); assay: Inhibition curves (IC50) of canonical NLRP3 activation in J774A.1 cells, IL-1β release; assay type: cell-based; parameters: The mouse macrophage cell line J774A.1 was used, and LPS was used as the first signal; host or cells: J774A.1 mouse monocyte-macrophage cell line; conditions: J774A.1 cell LPS+Nig activation model
T1 sequence (Q8R4B8 whole entry): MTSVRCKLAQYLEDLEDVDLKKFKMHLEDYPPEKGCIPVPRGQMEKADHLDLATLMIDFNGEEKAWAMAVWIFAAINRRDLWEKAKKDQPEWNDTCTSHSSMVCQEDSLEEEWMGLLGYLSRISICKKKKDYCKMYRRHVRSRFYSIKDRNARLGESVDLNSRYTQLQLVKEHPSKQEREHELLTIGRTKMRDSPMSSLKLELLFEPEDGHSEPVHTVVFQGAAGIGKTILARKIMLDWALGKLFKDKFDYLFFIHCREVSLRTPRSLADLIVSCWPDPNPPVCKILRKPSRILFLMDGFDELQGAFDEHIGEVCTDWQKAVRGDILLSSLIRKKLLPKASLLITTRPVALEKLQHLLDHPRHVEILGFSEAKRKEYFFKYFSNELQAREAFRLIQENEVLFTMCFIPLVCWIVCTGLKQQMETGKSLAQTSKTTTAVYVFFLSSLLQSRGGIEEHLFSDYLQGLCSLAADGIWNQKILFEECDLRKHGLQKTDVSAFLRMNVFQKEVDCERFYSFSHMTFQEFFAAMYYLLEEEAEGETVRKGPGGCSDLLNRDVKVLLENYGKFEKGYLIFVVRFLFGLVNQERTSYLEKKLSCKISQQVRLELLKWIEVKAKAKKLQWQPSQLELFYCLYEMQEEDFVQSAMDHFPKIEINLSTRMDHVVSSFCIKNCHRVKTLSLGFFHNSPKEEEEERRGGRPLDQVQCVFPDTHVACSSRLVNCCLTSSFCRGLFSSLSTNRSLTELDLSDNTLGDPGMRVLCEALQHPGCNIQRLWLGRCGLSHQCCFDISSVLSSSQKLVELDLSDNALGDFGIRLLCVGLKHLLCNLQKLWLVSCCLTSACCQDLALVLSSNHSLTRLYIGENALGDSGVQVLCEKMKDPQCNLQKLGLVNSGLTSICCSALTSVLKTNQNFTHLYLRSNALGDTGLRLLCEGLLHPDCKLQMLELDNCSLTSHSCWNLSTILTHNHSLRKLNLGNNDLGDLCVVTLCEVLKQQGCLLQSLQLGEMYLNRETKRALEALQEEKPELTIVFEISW
Method: (§2) J774A.1 cells were plated in a 48-well plate at a density of 1.0×10^6 cells/mL, with 300 µL per well. Subsequently, NLRP3 was activated by LPS+ATP or LPS+Nig. […] ATP was purchased from Sigma, Cat. No.: L2654. Nig was purchased from Shanghai Yuanye Bio-Technology Co., Ltd., Cat. No.: S45490.
Experimental groups: a negative control group, an LPS-alone incubation control group, an LPS+ATP/Nig positive control group, and an example compound experimental group with different concentrations.
After the plated J774A.1 cells adhering to the plate, the culture medium was replaced. For all the groups except the negative control group, the culture medium was completely replaced with cell culture medium containing 1 µg/mL LPS. The negative control group received cell culture medium. Then, all the groups were incubated overnight. 18 h later, the culture medium was replaced again. The culture medium of the example compound experimental group was completely replaced with culture medium containing different concentrations of compounds; while the negative control group, the LPS-alone incubation control group, and the LPS+ATP/Nig positive control group received cell culture medium. 1 h later, the culture mediums of the LPS+ATP/Nig positive control group and the example compound experimental group with different concentrations were completely replaced with cell culture medium containing 5 mM ATP or 10 µM Nig. 1 h later, the cell supernatants were collected for IL-1β detection.
(§3) Therefore, the relative change in the amount of IL-1β release may directly reflect NLRP3 inhibitory effect. The inhibitory effect of the compounds varies with different concentrations, and based on this, an inhibition curve can be constructed, and the inhibitory effects of the compounds were assessed by IC50.

NLRP3 [4] = target: T1, NLRP3; assay: Inhibition of canonical NLRP3 activation (LPS+ATP/Nig) in J774A.1 cells, IL-1β release by ELISA, single concentration; assay type: cell-based; parameters: The mouse macrophage cell line J774A.1 was used, and LPS was used as the first signal; host or cells: J774A.1 mouse monocyte-macrophage cell line; conditions: J774.A1, 1 µM compound, LPS + 5 mM ATP or 10 µM Nig, compared with the positive control, read-out: inhibition of IL-1β release
Method: as §2, with “using LPS+5 mM ATP (adenosine triphosphate)” for “by LPS+ATP”, “10 µM Nig (nigericin).” for “LPS+Nig.”
Experimental groups: a negative control group, an LPS-alone incubation control group, an LPS+ATP or +Nig positive control group, and an example compound experimental group.
After the plated J774A.1 cells adhering to the plate, the culture medium was replaced. For all the groups except the negative control group, the culture medium was completely replaced with cell culture medium containing 1 µg/mL LPS. The negative control group received cell culture medium. Then, all the groups were incubated overnight. 18 h later, the culture medium was replaced again. The culture medium of the example compound experimental group was completely replaced with cell culture medium containing the compounds; while the negative control group, the LPS-alone incubation control group, and the LPS+ATP/Nig positive control group received cell culture medium. 1 h later, the culture mediums of the LPS+ATP/Nig positive control group and the example compound experimental group were completely replaced with cell culture medium containing 5 mM ATP or 10 µM Nig. 1 h later, the cell supernatants were collected for IL-1β detection.
Therefore, the relative change in the amount of IL-1β release may directly reflect NLRP3 inhibitory effect.

NLRP3 [5] = target: T1, NLRP3; assay: Inhibition of APOE peptide-induced NLRP3 activation in J774A.1 cells, IL-1β release; assay type: cell-based; parameters: The mouse macrophage cell line J774A.1 was used, and LPS was used as the first signal; host or cells: J774A.1 mouse monocyte-macrophage cell line; conditions: J774.A1, 10 µM compound, 30 µg/mL APOE peptide
Method: J774A.1 cells were plated in a 48-well plate at a density of 1.0×10^6 cells/mL, with 300 µL per well. Subsequently, NLRP3 was activated by APOE peptide. The cell culture medium comprises: DMEM (brand: Gibco, Cat. No.: C12430500) + 10% fetal bovine serum (brand: Gibco, Cat. No.: 10099-141) + 1% sodium pyruvate (brand: Gibco, Cat. No.: 11360-070) + 1% penicillin-streptomycin solution (brand: Solarbio, Cat. No.: P1400). The J774A.1 mouse monocyte-macrophage cell line was purchased from the Cell Resource Center of the Institute of Basic Medical Sciences of Chinese Academy of Medical Sciences (Resource No. 1101MOU-PUMC000222). APOE2/3 peptide 1-151 was obtained through recombinant protein expression and purification by Biocells (Beijing) Biotech Co., Ltd. The procedures were as follows: the sequence (SEQ ID NO: 1) shown below was inserted into the pET-28A plasmid and transformed into BL-21(DE3) expression strain; the expression of target protein was induced with IPTG at a low temperature; after collecting the bacteria via centrifugation, ultrasonic disruption was performed; and after centrifugation, the supernatant was purified by nickel ion affinity chromatography (AKTA pure), and then the product was concentrated by ultrafiltration and identified by BCA+protein electrophoresis. Sequence: [formula]
Experimental groups: a negative control group, an APOE treatment control group, and an example compound experimental group.
After the plated J774A.1 cells adhering to the plate, the culture medium was replaced. The culture medium of the APOE treatment control group was replaced with cell culture medium containing 30 µg/mL APOE peptide, the culture medium of the example compound experimental group was replaced with culture medium containing 30 µg/mL APOE peptide combined with the compounds, and the negative control group received cell culture medium. Then, all the groups were incubated overnight. 18 h later, the cell supernatants were collected for IL-1β detection.
Activation of NLRP3 by APOE peptide will result in release of mature IL-1β, and the release can be inhibited by NLRP3 inhibitors. Therefore, the relative change in the amount of IL-1β release may directly reflect NLRP3 inhibitory effect.
In this experimental example, effective inhibition refers to a reduction of 70% or more in the release amount, compared with the release amount of the positive control minus the negative control.

NLRP3 [6] = target: T2, NLRP3 (Homo sapiens, UniProt Q96P20); assay: Inhibition of canonical NLRP3 activation (LPS+Nig) in PMA-differentiated THP-1 cells, IL-1β release, single concentration; conditions: 1 µM compound, FIG. 6 legend
T2 sequence (Q96P20 whole entry): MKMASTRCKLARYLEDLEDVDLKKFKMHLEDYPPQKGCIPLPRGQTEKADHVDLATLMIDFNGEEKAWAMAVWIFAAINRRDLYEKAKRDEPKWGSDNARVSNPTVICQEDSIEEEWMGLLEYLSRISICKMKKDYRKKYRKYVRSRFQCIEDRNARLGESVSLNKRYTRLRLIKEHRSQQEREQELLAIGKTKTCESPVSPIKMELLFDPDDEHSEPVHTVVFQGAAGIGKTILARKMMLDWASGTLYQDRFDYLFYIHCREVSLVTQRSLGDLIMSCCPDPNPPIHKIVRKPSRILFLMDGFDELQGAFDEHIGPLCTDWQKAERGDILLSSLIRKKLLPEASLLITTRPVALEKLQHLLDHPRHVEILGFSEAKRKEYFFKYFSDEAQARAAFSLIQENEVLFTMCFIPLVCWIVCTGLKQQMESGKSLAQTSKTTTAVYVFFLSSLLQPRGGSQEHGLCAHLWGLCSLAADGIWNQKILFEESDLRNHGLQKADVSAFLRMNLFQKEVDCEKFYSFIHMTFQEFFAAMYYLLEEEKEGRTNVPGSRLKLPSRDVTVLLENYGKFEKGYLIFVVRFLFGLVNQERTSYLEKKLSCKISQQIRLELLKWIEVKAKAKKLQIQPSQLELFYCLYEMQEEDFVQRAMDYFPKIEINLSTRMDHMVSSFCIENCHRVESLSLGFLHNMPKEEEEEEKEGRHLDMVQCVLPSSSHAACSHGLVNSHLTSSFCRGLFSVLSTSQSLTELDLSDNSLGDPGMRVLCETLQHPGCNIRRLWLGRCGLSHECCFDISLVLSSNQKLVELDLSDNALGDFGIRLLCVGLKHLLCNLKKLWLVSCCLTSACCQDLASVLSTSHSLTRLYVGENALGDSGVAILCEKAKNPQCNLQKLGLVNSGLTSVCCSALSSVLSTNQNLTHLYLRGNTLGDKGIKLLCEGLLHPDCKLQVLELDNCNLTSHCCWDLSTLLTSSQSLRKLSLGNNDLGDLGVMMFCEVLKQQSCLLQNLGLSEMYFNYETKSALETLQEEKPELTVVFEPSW
Method: THP-1 cells were plated in a 96-well plate at a density of 1.0×10^6 cells/mL, with 100 µL per well. Subsequently, PMA-induced differentiation and cell resting were performed, followed by activation of NLRP3 by LPS+Nig.
Experimental groups: a negative control group, an LPS-alone incubation control group, an LPS+Nig positive control group, and a 1 µM example compound experimental group.
100 ng/mL PMA was added at the same time as THP-1 cells were plated. After incubation for 24 h, the cells were washed three times with PBS, and then the culture medium was changed and the cells were allowed to rest for 24 h. Then the culture medium was completely replaced with medium containing 1 µg/mL LPS. The cells were incubated overnight. On the next day, the wells to which LPS was added completely received culture medium, and then the wells were incubated with specified example compounds for 1 h.
In this experimental example, effectively inhibiting IL-1β release means that the release amount in each group is reduced by 50% or more compared with that of the positive control.

NLRP3 [7] = target: T2, NLRP3; assay: Inhibition curves (IC50) of canonical NLRP3 activation in healthy human whole blood, IL-1β release; assay type: cell-based; conditions: LPS+1 mM ATP canonical activation model
Method: 10 mL of human whole blood was collected intravenously aseptically, and plated into a 96-well plate, with 198 µL per well. Then, 2 µL of 100× gradient dilutions of the example compounds at specified concentrations were added, immediately followed by the addition of 10 µL of 21 µg/mL LPS gradient dilution. 3 h later, nigericin with a working concentration of 5 µM or 1 mM ATP was added. After stimulation for 1 h, the whole blood was collected and centrifuged to collect the supernatant. IL-1β in the sample supernatant was detected by ELISA method.
Experimental groups: a negative control group, an LPS-alone incubation control group, an LPS+Nig/ATP positive control group, and a 1 µM example compound experimental group.
10 mL of human whole blood was collected intravenously aseptically. The anticoagulant heparin sodium was added preemptively into a 50 mL centrifuge tube. The collected whole blood was directly plated in a 96-well plate, with 198 µL per well. […] IL-1β in the sample supernatant was detected by ELISA method.
Therefore, the relative change in the amount of IL-1β release may directly reflect NLRP3 inhibitory effect. The inhibitory effect of the compounds varies with different concentrations, and based on this, an inhibition curve can be constructed, and the inhibitory effect of the compounds were assessed by IC50.

NLRP3 [8] = target: T2, NLRP3; assay: Inhibition curves (IC50) of canonical NLRP3 activation (LPS+Nig) in THP-1 cells, IL-1β release; assay type: cell-based; parameters: host or cells: THP-1 human acute monocytic leukemia cell line, PMA-differentiated; conditions: THP-1 cell LPS+Nig activation model
Method: Nig was purchased from Shanghai Yuanye Bio-Technology Co., Ltd., Cat. No.: S45490.
The cells were incubated overnight.
as §3

Row | Compound | concentration at 120 min [1] [ng/mL] | half-life [1] [h] | AUC [1] [ng·h/mL] | IC50 (NLRP3 [3]) [nM] | inhibition at 1 µM (NLRP3 [4]) [%] | inhibition at 10 µM (NLRP3 [5]) [%] | also measured
1 | CC(C)(O)c1coc(S(=O)(=O)NC(=O)Nc2c3c(cc4c2CCC4)CCC3)c1 [MCC950, reference compound] | 0 | 1.28 | 29600 | – | – | – | half-life [2]: 0.267 h; AUC ([2]; read-out: AUC from 1 to 1440 min): 4380 ng·h/mL
2 | CN(C)Cc1cccc(S(=O)(=O)NC(=O)Nc2c3c(cc4c2CCC4)CCC3)c1Cl [Example 1, 2-chloro-3-((dimethylamino)methyl)-N-((1,2,3,5,6,7-hexahydro-s-indacen-4-yl)carbamoyl)benzenesulfonamide] | – | – | – | 64.6 | > 80 | – | –
3 | Cc1c(CN(C)C)cccc1S(=O)(=O)NC(=O)Nc1c2c(cc3c1CCC3)CCC2 [Example 26, 3-((dimethylamino)methyl)-N-((1,2,3,5,6,7-hexahydro-s-indacen-4-yl)carbamoyl)-2-methylbenzenesulfonamide] | – | – | – | 81.6 | > 80 | ≥ 70 | –
4 | CN(C)Cc1cc(S(=O)(=O)NC(=O)Nc2c3c(cc4c2CCC4)CCC3)cc(F)c1O [Example 17, 3-((dimethylamino)methyl)-5-fluoro-N-((1,2,3,5,6,7-hexahydro-s-indacen-4-yl)carbamoyl)-4-hydroxybenzenesulfonamide] | 184 | 3.85 | 15500 | 194 | > 80 | ≥ 70 | reduction in release amount compared with that of the positive control minus the LPS-alone control (NLRP3 [6]): ≥ 75%
5 | CN(C)Cc1cccc(S(=O)(=O)NC(=O)Nc2c3c(cc4c2CCC4)CCC3)c1O [Example 27, 3-((dimethylamino)methyl)-N-((1,2,3,5,6,7-hexahydro-s-indacen-4-yl)carbamoyl)-2-hydroxybenzenesulfonamide] | 96 | 2.88 | 47300 | 79.6 | > 80 | – | reduction in release amount compared with that of the positive control minus the LPS-alone control (NLRP3 [6]): ≥ 75%; IC50 (NLRP3 [7]): 55800 nM
6 | CN(C)Cc1cc(S(=O)(=O)NC(=O)Nc2c3c(cc4c2CCC4)CCC3)c(F)cc1N [Example 22, 4-amino-5-((dimethylamino)methyl)-2-fluoro-N-((1,2,3,5,6,7-hexahydros-indacen-4-yl)carbamoyl)benzenesulfonamide] | – | – | – | 127 | > 80 | ≥ 70 | –
7 | CN(C)Cc1c(O)ccc(S(=O)(=O)NC(=O)Nc2c3c(cc4c2CCC4)CCC3)c1F [Example 31, 3-((dimethylamino)methyl)-2-fluoro-N-((1,2,3,5,6,7-hexahydro-s-indacen-4-yl)carbamoyl)-4-hydroxybenzenesulfonamide] | – | – | – | 203 | – | – | –
8 | CN(C)C1CCOc2c1cccc2S(=O)(=O)NC(=O)Nc1c2c(cc3c1CCC3)CCC2 (stereo not shown) [Example 32, 4-(dimethylamino)-N-((1,2,3,5,6,7-hexahydro-s-indacen-4-yl)carbamoyl)chromane-8-sulfonamide] | – | – | – | 390 | – | – | –
9 | Cc1c(S(=O)(=O)NC(=O)Nc2c3c(cc4c2CCC4)CCC3)ccc(O)c1CN(C)C [Example 30, 3-((dimethylamino)methyl)-N-((1,2,3,5,6,7-hexahydro-s-indacen-4-yl)carbamoyl)-4-hydroxy-2-methylbenzenesulfonamide] | – | – | – | 144 | – | – | IC50 (NLRP3 [8]): 36.7 nM
